Molecules are shown by their SMILES.

The subject of assay [1] is glycominimized (GM) E. coli strain. In words: Osmotic stress sensitivity assay, GM strain compared to WT strain. The format is cell-based, Escherichia coli K-12 MG1655. The settings on record: minimal medium. On the procedure:
Cells were cultured in Greiner Bio-One (Vilvoorde, Belgium) polystyrene F-bottom 96 well plates using the defined medium described above and inoculated 1% from precultures, which were grown in a carbon limiting 2.2 g/L glucose H2O defined medium variant. For the minimum inhibitory concentration (MIC) determination and osmotic stress sensitivity experiments, antibiotics resp. salts were supplemented to the medium in a 100 mL volumetric flask and subsequently filter sterilized using a […] Corning filter system. Each strain was grown in multiple wells of the 96-well plate as biological replicates. These final 96-well culture plates were then incubated at 30° C. on an orbital shaker at 800 rpm for 72h, or longer
The maximal growth rate (Max) was calculated based on the observed optical densities at 600 nm using the R package grofit.
To test the osmotic stress sensitivity of an E. coli strain, a concentration array of KCl, NaCl and sucrose was applied, and growth of the strain recorded. The growth rate was calculated and plotted in function of the concentration of each solute as well as of the osmotic pressure. The osmotic pressure π is calculated as π=i*C*R*T whereby i is the dimensionless Van't Hoff index, C the concentration of the solute (mol/L), R the ideal gas constant and T the temperature (K). For salts that dissociate in water, the Van't Hoff index is the sum of all ions originating from one molecule.
Since the semi-permeable membrane of the GM strain is severely altered compared to that of the WT strain, the osmotic sensitivity of both strains was compared toward KCl, NaCl and sucrose.

Assay [2] has the same test system. In words: Growth rate and MIC in minimal medium with increasing antibiotic concentrations, GM strain compared to WT strain. Format: cell-based, Escherichia coli K-12 MG1655.
Protocol: Cells were cultured in Greiner Bio-One (Vilvoorde, Belgium) polystyrene F-bottom 96 well plates using the defined medium described above and inoculated 1% from precultures, which were grown in a carbon limiting 2.2 g/L glucose H2O defined medium variant. For the minimum inhibitory concentration (MIC) determination and osmotic stress sensitivity experiments, antibiotics resp. salts were supplemented to the medium in a 100 mL volumetric flask and subsequently filter sterilized using a 0,22 m Corning filter system. Each strain was grown in multiple wells of the 96-well plate as biological replicates. These final 96-well culture plates were then incubated at 30° C. on an orbital shaker at 800 rpm for 72h, or longer
Cell density of the cultures was frequently monitored by measuring optical density at 600 nm (Implen Nanophotometer NP80, Westburg, Belgium) or with a Spark 1OM microplate reader (Tecan, Switzerland).
The minimum inhibitory concentration (MIC) was determined as the lowest concentration of an antibiotic where the growth rate was less or equal than 10% of the growth rate when no antibiotic was added.
In this experiment, the growth rate was measured for both the wildtype and the GM strain when grown in media containing increasing antibiotic concentrations.
Setting [3] is: at 5 g/L concentrations of the salt solutes.

Take `OC[C@H]1O[C@@](CO)(O[C@H]2O[C@H](CO)[C@@H](O)[C@H](O)[C@H]2O)[C@@H](O)[C@@H]1O` [sucrose]: the “osmotic sensitivity of the GM strain compared to the WT strain (relative specific growth rate, FIG. 2)” value in assay [1] (up till 64 g/L sucrose) is “equally sensitive”. For `[Cl-].[K+]` [KCl], the “osmotic sensitivity of the GM strain compared to the WT strain (relative specific growth rate, FIG. 2)” value in assay [1] (setting [3]) is recorded as “equally sensitive”.

In the case of `[Cl-].[Na+]` [NaCl], in assay [1] (setting [3]), the “osmotic sensitivity of the GM strain compared to the WT strain (relative specific growth rate, FIG. 2)” value is “equally sensitive”. On to `CC[C@H]1OC(=O)[C@H](C)[C@@H](O[C@H]2C[C@@](C)(OC)[C@@H](O)[C@H](C)O2)[C@H](C)[C@@H](O[C@@H]2O[C@H](C)C[C@H](N(C)C)[C@H]2O)[C@](C)(O)C[C@@H](C)C(=O)[C@H](C)[C@@H](O)[C@]1(C)O` [erythromycin], for which, in assay [2] (MIC = lowest concentration where growth rate is less or equal than 10% of growth rate without antibiotic, both strains compared), the “minimum inhibitory concentration (MIC), GM strain vs WT strain” value is “similar”. Further, in assay [2] (minimal medium, increasing antibiotic concentrations, GM vs WT strain), the “sensitivity of the GM strain to the antibiotic compared to the WT strain (relative specific growth rate, FIG. 1)” value was “similarly sensitive”.

Source of the values: patent publication US20220403431A1, “GLYCOMINIMIZED BACTERIAL HOST CELLS” (INBIOSE N.V., priority 2020, published 2022).
